Biological target: γ-secretase (Homo sapiens, UniProt P49768)
Experiment: Substrate specificity: β-Alcα secretion by HEK293 cells transfected with FLAG Alcα C150, anti-FLAG immunoprecipitation/western blot
Assay type: cell-based
Conditions: 0.2 μmol/L; for activity at 0.2 µM: HEK293, 24 h, FLAG Alcα C150, negative control = 100%, read-out: (ii) β-Alcα secretion rate of HEK293 cells
Procedure: Of families constituting human Alcadein (hereinafter, referred to as Alc) known as a substrate for γ-secretase to colocalize with APP in brain neurons, an artificial Alcα fragment (hereinafter, referred to as Alcα C150) whose first extracellular cleavage site and γ-secretase cleavage site were determined was used to study the substrate specificity of the γ-secretase inhibitor of the present invention. β-Alcα produced from a first cleavage construct of Alcα cannot be quantified by sELISA used in Aβ measurement. Therefore, proteins with an attached FLAG tag at the N termini of first cleavage constructs of Alcα and of C99 were expressed by cells. FLAG-Aβ-like peptides secreted into a medium were collected by immunoprecipitation using anti-FLAG antibodies and detected by western blotting using the antibodies. A specific method thereof is shown below.
HEK293 cells (ATCC) (1×10^7 cells/10 cm dish) cultured in 6 ml of 10% FCS-containing DMEM (Wako Pure Chemical Industries, Ltd.) were transfected with FLAG APP C99 pcDNA3.1 (the nucleotide sequence of its coding region is shown in SEQ ID NO: 2) (J. Biol. Chem., 2003, 278, 49448-49458 (which was prepared from pcDNA3-APPC99)) or with FLAG Alcα C150 pcDNA3.1 (the nucleotide sequence of its coding region is shown in SEQ ID NO: 3) (J. Biol. Chem., 2004, 279, 24343-24354 (which was the same as pcDNA3AlcαΔE)) using Lipofectamine 2000 (Invitrogen Corp.) according to the protocol included in the reagent. Each inhibitor and a positive control (γ-Secretase Inhibitor IX (DAPT)) (Calbiochem Contact Information) were separately added at a concentration of 0.2 or 2 μmol/L. The same dose of DMSO (Wako Pure Chemical Industries, Ltd.) thereas was added as a negative control. 24 hours later, the culture supernatants were collected, and samples were preliminarily purified using beads (100 μL of 50% (v/v) Protein-G Sepharose (GE Healthcare)). Then, 15 μL of 50% (v/v) anti-FLAG antibody M2 beads (Sigma-Aldrich Corp.) were added thereto, and the samples were incubated at 4° C. for 1 hour. The beads were collected by centrifugation and washed three times with a buffer (10 mM Tris-HCl [pH 8.0], 140 mM NaCl, 0.1% n-octyl glucoside, 0.025% sodium azide), and Aβ and β-Alcα in the medium were collected. The proteins were subjected to SDS-PAGE using a 15% Tris-Tricine gel (Anal Biochem., 1987, 166 (2), 368-379) and then transferred to a membrane. The membrane was boiled for 5 minutes in PBS. Then, anti-FLAG M2 antibodies (5 μg/ml) (Sigma-Aldrich Corp.) were added thereto, and the membrane was incubated, followed by detection using a western blotting detection reagent ECL (GE Healthcare). This signal was quantified using Versa-doc system (Bio-Rad Laboratories, Inc.) to calculate protein secretion rates (the protein secretion rate of the negative control is defined as 100%).

Row | SMILES | γ cleavage of the Alcα-C150, in words | activity at 0.2 µM [%]
1 | CSCCC(NC(=O)C(NC(=O)C(CC(C)C)CC(O)C(NC(=O)OC(C)(C)C)C(C)O)C(C)C)C(=O)NCc1ccccc1 [TLVM-5, [5S-(tert-butoxycarbonylamino)-4R,6R-dihydroxy-2R-(2-methylpropyl)heptanoyl]-L-valyl-L-methionine benzylamide] | did not inhibit | 140
2 | CCCCNC(=O)C(CCSC)NC(=O)C(NC(=O)C(CC(C)C)CC(O)C(NC(=O)OC(C)(C)C)C(C)O)C(C)C [TLVM-7, [5S-(tert-butoxycarbonylamino)-4R,6R-dihydroxy-2R-(2-methylpropyl)heptanoyl]-L-valyl-L-methionine n-butylamide] | did not inhibit | 120
3 | CSCCC(NC(=O)C(NC(=O)C(CC(C)C)CC(O)C(NC(=O)OC(C)(C)C)C(C)O)C(C)C)C(=O)NC(C)c1ccccc1 [TLVM-8, [5S-(tert-butoxycarbonylamino)-4R,6R-dihydroxy-2R-(2-methylpropyl)heptanoyl]-L-valyl-L-methionine (S)-α-methylbenzylamide] | did not inhibit | 118
4 | CSCCC(NC(=O)C(NC(=O)C(CC(C)C)CC(O)C(NC(=O)OC(C)(C)C)C(C)O)C(C)C)C(=O)NCc1ccc(F)cc1 [TLVM-9, [5S-(tert-butoxycarbonylamino)-4R,6R-dihydroxy-2R-(2-methylpropyl)heptanoyl]-L-valyl-L-methionine 4-fluorobenzylamide] | did not inhibit | 158
